The values that follow come from US11480576B2, “Conjugated oligomer-based macrocycles for live cell imaging” (THE FLORIDA INTERNATIONAL UNIVERSITY BOARD OF TRUSTEES, priority 2019, dated 2022).

The data set in a line: Photophysical properties of PEMCs (UV-vis absorption, fluorescence, QY). The data set is classed as physicochemical. As to the method:
Chemicals, including solvents, were purchased from Fisher Scientific and used as received. Deuterated solvents were purchased from Cambridge Isotope Laboratories (Cambridge, Mass.). All chemicals and solvents were purchased and used without further purification. Nuclear magnetic resonance (NMR) spectra were recorded on a 400 MHz Avance Bruker NMR spectrometer. ^1H and ^13C NMR chemical shifts are given in ppm relative to Si(CH3)4. The mass spectrometric data were conducted on a Bruker Solarix FT-ICRMS. Data for crystal structure was obtained on a Bruker D8 Quest CMOS diffractometer. The crystal was kept at T=296(2) K during data collection. Using APEX3, the structure was solved with the ShelXT 2014/5 structure solution program, using the intrinsic phasing method. The model was refined with version 2016/6 of ShelXL using full matrix least squares on F^2 minimization, using the Olex2 GUI. Analytical thin layer chromatography (TLC) was performed on TLC Silica gel 60 F254. […] UV-vis spectra were recorded on a Varian Cary 50 Bio spectrophotometer. Fluorescence spectra were obtained using a FluoroLog-3 Spectrofluorometer (Jobin Yvon/Horiba). 9,10-diphenylanthracene (QY=1.0) in cyclohexane was used as a fluorescence standard for QY determination. Fourier transform infrared (FTIR) spectra were recorded on a PerkinElmer Spectrum 100 FTIR Spectrometer. […]

Each structure is given as a SMILES string.

For the molecule `COc1cc(C#Cc2ccc(C=O)cc2)c(OC)cc1C#Cc1ccc(C=O)cc1` [1a, 4,4′-((2,5-dimethoxy-1,4-phenylene)bis(ethyne-2,1-diyl))dibenzaldehyde], the “Extinction coefficient (ε)” value came to 62700 M⁻¹ cm⁻¹. In addition, the “Quantum Yield (QY)” value (9,10-Diphenylanthracene (QY = 1.0) in cyclohexane as fluorescence standard) was determined as 31%.
